Experimental data reported in US5958946A, “Modulation of hair growth” (priority 1998, dated 1999).

Tests used:
[1] = tested on: flank organs; assay: Flank organ diameter by caliper after topical treatment; assay type: in vivo, Golden Syrian hamster; settings: for effect on flank organ diameter (in words): topical application; for % Decrease (flank organ diameter) / Decrease (mm) (flank organ diameter, treated vs vehicle) / Treated FO (mm) (flank organ diameter): topical treatment as in the hair mass assay
Method: It was believed that the diversion of testosterone away from its biologically active species to a glucuronide or sulfonate conjugate would have effects on the flank organs of the Golden Syrian hamster since testosterone is known to regulate the existence of these unique organs. The diameter of flank organs were assessed using a caliper following topical treatment of the hamsters with ethoxyquin or 5,7-dihydroxy-4'-methoxyflavone as described in the hair mass assay section.

[2] = tested on: androgen-stimulated hair growth of flank organs; assay: Golden Syrian hamster assay (flank organ hair mass); assay type: in vivo; settings: topical, 10% dose, thirteen applications, vehicle A, B or C per compound; for Left(mg) (hair mass of the compound-treated flank organ): 10 μl once a day
Description: Male intact Golden Syrian hamsters are considered acceptable models for human beard hair growth and other androgen-stimulated hair growth in that they display oval shaped flank organs, one on each side, each about 8 mm. in major diameter, which grow thick black and coarse hair similar to human beard hair. These organs produce hair in response to androgens in the hamster. To evaluate the effectiveness of a composition in reducing androgen-stimulated hair growth, the flank organs of each of a group of hamsters are shaved. To one organ of each animal 10 μl. of composition vehicle alone once a day is applied, while to the other organ of each animal an equal amount of the composition (including the relevant compound or compounds). After thirteen applications (one application per day for five days a week), the flank organs are shaved and the amount of recovered hair (hair mass) from each is weighed. Percent-reduction of hair growth is calculated by subtracting the hair mass (mg) value of the test compound treated side from the hair mass value of the vehicle treated side; the delta value obtained is then divided by the hair mass value of the vehicle treated side, and the resultant number is multiplied by 100.
The above-described assay will be referred to herein as the "Golden Syrian hamster" assay. Preferred compositions provide a reduction in hair growth of at least about 30%, more preferably at least about 50%, and most preferably at least about 60% when tested in the Golden Syrian hamster assay.
A number of compositions containing compounds that induce or activate UGTs for which testosterone is a substrate were tested in the Golden Syrian hamster assay; the results are provided in Table I: […]

[3] = tested on: glucuronidation of testosterone (UGTs); assay: Induction of testosterone glucuronide formation in flank organ homogenates; assay type: biochemical, Golden Syrian hamster; settings: flank organ protein, [14C]-testosterone 125 μM, UDP-glucuronic acid 5 mM, 37° C., 60 minutes
Method: An assay was performed to evaluate whether some of the compounds tested in the Golden Syrian Hamster assay caused an induction of testosterone glucuronide formation.
Flank organ homogenates were prepared by adding 4 flank organs into 2 mL of a buffer containing 25 mM Tris/50 mM sucrose, pH 7.4 and homogenized with a Polytron (Brinkman Instruments) while keeping the mixture on ice. The glucuronidation of testosterone was measured by incubating the 20 μl of the flank organ protein (1 mg/ml) with [^14 C]-testosterone testosterone 125 μM and UDP-glucuronic acid (5 mM) in the presence of buffer containing 0.5M Tris, pH 7.5 and 0.1M MgCl2. The total reaction mixture volume was 100 μl. Assay mixtures were incubated at 37° C. for 60 minutes, and reactions were stopped with the addition of 3.5 ml methylene chloride. An aqueous carrier (250 μl water) was added to each reaction mixture which was then shaken and centrifuged. The unmetabolized [^14 C]-testosterone remained in the organic phase whereas the testosterone glucuronide partitioned into the aqueous phase, and was quantitated by scintillation spectrometry.

SMILES	effect on flank organ diameter (in words) [1]	% Decrease (flank organ diameter) [1] [%]	Decrease (mm) (flank organ diameter, treated vs vehicle) [1]	Treated FO (mm) (flank organ diameter) [1]	Left(mg) (hair mass of the compound-treated flank organ) [2]	% Inhibition (percent reduction of hair growth vs vehicle-treated side) [2] [%]	% Induction (testosterone glucuronide formation) [3] [%]
COc1ccc(-c2cc(=O)c3c(O)cc(O)cc3o2)cc1 [5,7-dihydroxy-4'-methoxyflavone]	decrease in flank organ diameter	12 ± 5	1.04 ± .46 mm	8.04 ± .29 mm	1.00 ± .22 mg	62 ± 9	120
COc1ccc(O)c(C(C)(C)C)c1 [butylhydroxyanisole]	–	–	–	–	0.92 ± .24 mg	61 ± 9	178
Cc1cc(C(C)(C)C)c(O)c(C(C)(C)C)c1 [butylhydroxytoluene]	–	–	–	–	1.74 ± .38 mg	22 ± 18	–
CCOc1ccc2c(c1)C(C)=CC(C)(C)N2 [ethoxyquin]	decrease in flank organ diameter	19 ± 4	1.65 ± .37 mm	7.18 ± .26 mm	0.55 ± .16 mg	75 ± 7	214
O=C1CC(c2ccccc2)Oc2ccccc21 (centres unmarked) [flavanone]	–	–	–	–	1.91 ± .22 mg	17 ± 10	–
O=C1C[C@@H](c2ccc(O)cc2)Oc2cc(O)cc(O)c21 [naringenin]	–	–	–	–	1.42 ± .18 mg	40 ± 8	–
CCC1(c2ccccc2)C(=O)NC(=O)NC1=O [phenobarbital, reference compound]	–	–	–	–	0.89 ± .16 mg	51 ± 11	113
